“Also recorded” adds a separate entry of the source.
Columns and labels:
[1] = tested on: C. parvum (UGA1 Nluc expressing strain in HCT-8 cells); experiment: microbe, parasite or virus in culture; assay type: cell-based, Cryptosporidium parvum; conditions: for Crypto (10 uM) Mean % inhibition: initial Pathogen Box screen, single concentration 10 µM, inhibition compared to DMSO wells; for EC50: Nluc C. parvum in HCT-8 cells, read-out: C. parvum EC50
In short: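 Parasite growth quantified by NanoLuc luminescence from lysed infected HCT-8 cells, with EC50 fitted from dose curves. Compounds, single-dose 10 μM or serially diluted, were added to confluent 48 h monolayers before infection with bleached UGA1 Nluc oocysts.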

[2] = tested on: G. lamblia trophozoites (luciferase expressing, WBC6); experiment: microbe, parasite or virus in culture; assay type: cell-based, Giardia lamblia; conditions: for Giardia (16 uM) Mean % inhibition: initial Pathogen Box screen, single concentration 16 µM, inhibition compared to DMSO wells
In short: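 Incubation ran 24 h at 37 °C under anaerobic conditions, with compound added in equal volume to trophozoites (WBC6, luciferase-expressing, 250,000 cells/mL). Bioluminescence was the read-out, cross-checked by MOXI Z counts on a duplicate plate; metronidazole served as control (1:2 dilutions from 40 μM).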

[3] = luciferase expressing G. lamblia trophozoites, 24 hours, D-luciferin bioluminescence read-out

| Compound | Crypto (10 uM) Mean % inhibition [1] | Giardia (16 uM) Mean % inhibition [2] | further results |
| --- | --- | --- | --- |
| COc1ccc(Cn2cnc3c(-c4ccco4)nc(Cl)nc32)cc1 [MMV687170] | 77% | 40% |  |
| Cc1[nH]c2cc(F)cc(F)c2c(=O)c1-c1ccc(Oc2ccc(OC(F)(F)F)cc2)cc1 [MMV671636] | X* (Mean or standard deviation are negative but not significantly different from the control to be a growth promoter) | 18% |  |
| CCC(NC(=O)c1ccccc1NC(=O)c1ccc(C)cc1)C(=O)OC (stereo not drawn) [MMV019551] | 23% | 5.53% |  |
| c1ccc2c(c1)CN(CC1CC1)CC1(CCN(Cc3c[nH]c4cnccc34)CC1)O2 [MMV023183] | X* (Mean or standard deviation are negative but not significantly different from the control to be a growth promoter) | 72% |  |
| CC(=O)N1CCc2cc3nc(C)cc(C)c3cc21 [MMV054312] | 59% | 45% |  |
| c1ccc(Oc2ccc(-c3cc(N4CCNCC4)[nH]n3)cc2)cc1 [MMV687706] | X* (Mean or standard deviation are negative but not significantly different from the control to be a growth promoter) | 30% |  |
| COc1ccc(-c2nc(-c3cccc(NC(=O)Cc4ccc(F)cc4)c3)no2)cc1OC [MMV676571] | 84% | 6% |  |
| Cc1ccc(-c2nc(CN(Cc3ccccn3)C(C)C)cs2)o1 [MMV1088520] | 27% | 52% |  |
| COc1cc(C2=NCCN2)cc2cc(-c3ccc(C4=NCCN4)cc3)oc12 [MMV688362] | 67% | 54% |  |
| COc1ccc(-c2nnc3ccc(-c4cccc(C(C)C)c4)cn23)cc1OC [MMV688313] | 34% | 26% |  |
| NCC(c1cccs1)S(=O)(=O)c1ccccc1 (stereo not drawn) [MMV688557] | 81% | -0.156% |  |
| CNc1snc(C)c1C(=O)NCCOc1ccc(OC)cc1 [MMV688554] | X* (Mean or standard deviation are negative but not significantly different from the control to be a growth promoter) | X* (Mean or standard deviation are negative but not significantly different from the control to be a growth promoter) |  |
| COC(=O)C1=C(C)NC(C)=C(C(=O)OC(C)C)[C@H]1c1cccc2nonc12 [MMV001493] | 53% | 25% |  |
| Nc1ccc2ncnc(Nc3ccc(OCc4cccc(F)c4)c(Cl)c3)c2c1 [MMV688273] | X* (Mean or standard deviation are negative but not significantly different from the control to be a growth promoter) | 51% |  |
| CCCCCCCCCCCCCCCCOP(=O)([O-])OCC[N+](C)(C)C [MMV688990] | X* (Mean or standard deviation are negative but not significantly different from the control to be a growth promoter) | X* (Mean or standard deviation are negative but not significantly different from the control to be a growth promoter) |  |
| CNC(=O)c1nn(C)c2c1C(C)(C)Cc1cnc(Nc3ccc(N4CCN(C)CC4)cc3)nc1-2 [MMV676602] | 85% | 94% | EC50 ([1]; 48 hours): 310 nM; G. lamblia EC50 [2, 3]: not effective; also recorded: not potent |
| COc1ccc(CN2CCOc3ccc(C(C)(O)CN(C)C)cc3C2)cc1C (stereo not drawn) [MMV008439] | 68% | 35% |  |
| CC(C)(C)OC(=O)N1CCN(c2nccc(-c3ccc(-c4ccc(Cl)cc4)s3)n2)CC1 [MMV688416] | 41% | 55% |  |
| Cc1ccc2nc(C)c(-c3ccn(Cc4ccccc4)n3)n2c1 [MMV688939] | 73% | X* (Mean or standard deviation are negative but not significantly different from the control to be a growth promoter) |  |
| Cc1nc(-c2cccc(NCc3ccccc3)c2)[nH]c1C [MMV023227] | 25% | 58% |  |
| COc1cccc2c(C)nc(N=C(N)N)nc12 [MMV000907] | 67% | 68% |  |
| CCc1ccccc1-n1c(C)cn2c3c(=O)n(C(C(=O)OC)C(C)C)c(=O)n(C)c3nc12 (stereo not drawn) [MMV688550] | 58% | X* (Mean or standard deviation are negative but not significantly different from the control to be a growth promoter) |  |

| Compound | Crypto (10 uM) Mean % inhibition [1] | Giardia (16 uM) Mean % inhibition [2] | further results |
| --- | --- | --- | --- |
| NC(CC(=O)c1ccc(Cl)cc1Cl)C(Cl)(Cl)Cl (stereo not drawn) [MMV676468] | X* (Mean or standard deviation are negative but not significantly different from the control to be a growth promoter) | 55% |  |
| O=C(Nc1ccc(N2CCNCC2)nc1)c1oc(-c2ccccc2)nc1C(F)(F)F [MMV024937] | X* (Mean or standard deviation are negative but not significantly different from the control to be a growth promoter) | 7% |  |
| COc1cc(OC)cc(C(=O)NCC2Cc3cc(Cl)cc(-c4ccncc4)c3O2)c1 (stereo not drawn) [MMV007471] | 50% | 23% |  |
| CC(C)(C)CN1C(=O)C(c2ccccc2)(c2ccccc2)N=C1N [MMV026550] | X* (Mean or standard deviation are negative but not significantly different from the control to be a growth promoter) | 35% |  |
| Nc1ncnc2c1c(Cc1cccc3ccccc13)nn2CC1CCNCC1 [MMV676182] | 59% | 0.413% |  |
| CN1CCC(NCc2cccc(-c3ccc(S(=O)(=O)NCc4ccccc4)cc3)c2)CC1 [MMV022029] | X* (Mean or standard deviation are negative but not significantly different from the control to be a growth promoter) | 89% |  |
| Cc1nc(-c2ccccn2)nc(N(C)CCc2ccccc2)c1Cl [MMV658988] | 33% | X* (Mean or standard deviation are negative but not significantly different from the control to be a growth promoter) |  |
| CCc1nc2ccc(C(=O)NCc3ccc4c(c3)OCO4)cn2c1N(C)Cc1cccs1 [MMV407539] | 59% | 17% |  |
| CCN(CC)S(=O)(=O)c1ccc(Cl)c(C(=O)Nc2ccc3nc(C)sc3c2)c1 [MMV019721] | 82% | 15% |  |
| COc1ccc2nc(C)cc(OCC(=O)Nc3ccccc3OC)c2c1 [MMV687188] | 38% | 28% |  |
| CCN(CC)S(=O)(=O)c1ccc(C(=O)Nc2cc(C)nn2-c2nc(C)c(C)c(=O)[nH]2)cc1 [MMV595321] | 92% | 26% |  |
| COc1ccc(CCN2CCC(NCc3cccc(N(C)C)c3)CC2)cc1 [MMV011511] | X* (Mean or standard deviation are negative but not significantly different from the control to be a growth promoter) | 73% |  |
| Cc1ccc(C(=O)Nc2ccc(S(=O)(=O)O)c3cc(S(=O)(=O)O)cc(S(=O)(=O)O)c23)cc1NC(=O)c1cccc(NC(=O)Nc2cccc(C(=O)Nc3cc(C(=O)Nc4ccc(S(=O)(=O)O)c5cc(S(=O)(=O)O)cc(S(=O)(=O)O)c45)ccc3C)c2)c1 [MMV637953] | 36% | 10% |  |
| NCCN(C(=O)c1ccc(Cl)cc1Cl)c1ccc(OCc2ccc(Cl)cc2)cc1 [MMV688371] | 76% | 72% |  |
| COc1ccc(OC)c(NCc2ccc3nc(N)nc(N)c3c2Cl)c1 [MMV675968] |  |  | C. parvum cell growth inhibition in the initial screen ([1]; 10 μM, 48 hours): 88%; EC50 ([1]; 48 hours): 2100 nM; G. lamblia inhibition of parasite growth in the initial screen ([2]; 16 μM, 24 hours): 90%; G. lamblia EC50 [2, 3]: not potent; EC50 ([2]; luciferase expressing G. lamblia trophozoites, 24 hours, D-luciferin bioluminescence read-out, read-out: G. lamblia EC50): > 10000 nM |
| CC1(O)CC(c2nc(-c3ccc4ccc(-c5ccccc5)nc4c3)c3c(N)nccn23)C1 (stereo not drawn) [MMV676605] | X* (Mean or standard deviation are negative but not significantly different from the control to be a growth promoter) | 15% |  |
| Cc1cc(C)cc(COc2ccc3c(C)c(CCC(=O)O)c(=O)oc3c2C)c1 [MMV676476] | X* (Mean or standard deviation are negative but not significantly different from the control to be a growth promoter) | 35% |  |
| CC(C(=O)Nc1ccc2oc(-c3ccncc3)nc2c1)c1ccccc1 (stereo not drawn) [MMV688471] | X* (Mean or standard deviation are negative but not significantly different from the control to be a growth promoter) | 19% |  |
| O=C1N(Cc2cc3ccccc3s2)CC2CN(Cc3ccccc3)CCN12 (stereo not drawn) [MMV084603] | 43% | 62% |  |
| CN(C)CCNC(=O)N1CCCN(c2ncnc3cc(-c4ccccc4)sc23)CC1 [MMV024195] | 15% | 31% |  |
| Nc1ncnc2c1ncn2[C@@H]1O[C@H](COS(=O)(=O)NC(=O)c2ccccc2O)[C@@H](O)[C@H]1O [MMV687700] | X* (Mean or standard deviation are negative but not significantly different from the control to be a growth promoter) | 15% |  |
| O=C(c1cc2ccccc2o1)N1CCN(Cc2ccc3c(c2)OCO3)CC1 [MMV676520] | 51% | 0.776% |  |

Source: PMC6095626, “Screening of the Pathogen Box for inhibitors with dual efficacy against Giardia lamblia and Cryptosporidium parvum” (PLoS Neglected Tropical Diseases, 2018)
